In publication PMC9437101, “Curcumin-based-fluorescent probes targeting ALDH1A3 as a promising tool for glioblastoma precision surgery and early diagnosis” (Communications Biology, 2022):

How the values were obtained:
[1] = test system: GL261 murine glioma cells; test: Imaging flow cytometry of living GL261 cells incubated with probe; type: cell-based; conditions: 1 h incubation
Procedure: GL261 cells were incubated, with probe 10 or 11, for 1 h and after three rinses in PBS, cells were detached by trypsin treatment and visualized without fixation through a rMarkII flow cytometer (Amnis, Luminex Corporation, Austin, TX, USA) as previously described. Data were collected using Inspire software (Amnis, version 2.0) with the following parameters: 10,000 images per sample, 488 nm laser (25 and 100 mW) to excite the probes, 785 nm laser used to provide a side scatter signal and measurement of SpeedBeads (Amnis, Luminex Corporation, Austin, TX, USA), 830 nm laser used for internal bead calibration of core flow speed and focus, ×60 objective, in low-speed flow. Data were further analyzed by Ideas software (Amnis, version 6.1).

[2] = biological target: T1, ALDH1A3 (Homo sapiens, UniProt P47895); test: IC50 and Ki evaluation, enzymatic inhibition with acetaldehyde; type: biochemical
T1 construct: E. coli BL21 (DE3) were transformed with the full-length expression vector of each isoform; His-tag; made in house; host or cells: E. coli BL21 (DE3)
T1 sequence (P47895 1-512): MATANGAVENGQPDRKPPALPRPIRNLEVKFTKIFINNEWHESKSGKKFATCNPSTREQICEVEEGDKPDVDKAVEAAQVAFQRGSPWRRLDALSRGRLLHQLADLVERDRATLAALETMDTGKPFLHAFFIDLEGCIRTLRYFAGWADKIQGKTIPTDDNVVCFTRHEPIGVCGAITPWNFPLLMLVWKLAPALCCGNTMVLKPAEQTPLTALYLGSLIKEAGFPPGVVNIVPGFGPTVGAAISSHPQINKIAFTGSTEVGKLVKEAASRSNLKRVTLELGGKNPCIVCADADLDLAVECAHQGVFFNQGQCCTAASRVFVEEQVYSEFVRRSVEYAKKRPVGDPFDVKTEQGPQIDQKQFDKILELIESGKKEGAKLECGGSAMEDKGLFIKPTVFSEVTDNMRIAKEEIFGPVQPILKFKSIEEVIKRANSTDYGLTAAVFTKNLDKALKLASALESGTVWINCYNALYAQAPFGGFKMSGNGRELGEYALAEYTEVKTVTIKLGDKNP
Procedure: Initially, the inhibitory activities of our fluorescent probes were screened at a fixed concentration of 50 μM using a Tecan Sunrise 96 Multiplate Reader with Greiner Bio-One 96-UV-Transparent Microplates. The analysis was performed in triplicate in a total volume of 100 μl per well containing 20 mM Tris HCl pH 8.0, 1 mM β-mercaptoethanol, 150 mM KCl, 500 μM NAD^+, […], 2.8 μM hALDH1A and 20 mM acetaldehyde. Afterwards, the inhibitory potency of the fluorescent probes was further investigated, evaluating the IC50 parameter. The enzymatic inhibition assays were performed in triplicate in a total volume of 100 μl per well containing 20 mM Tris HCl pH 8.0, 1 mM β-mercaptoethanol, 150 mM KCl, 500 μM NAD^+, 2.8 μM hALDH1A and 20 mM acetaldehyde in the presence of different probe concentrations, from 200 μM to 1.5625 μM. The DMSO final concentration allowed was up to 15%. Only for ALDH1A3 in complex with Probe 10, the Ki affinity parameter was calculated by performing the analysis in triplicate in a total volume of 100 μl per well containing 20 mM Tris HCl pH 8.0, 1 mM β-mercaptoethanol, 150 mM KCl, 500 μM NAD^+ and 2.8 μM ALDH1As. Due to chemical nature of Probe 10 and Probe 11, we set up the enzymatic assay assuming a competitive inhibition using different compounds concentration, from 200 μM to 1 μM, and different acetaldehyde concentrations, from 20 mM to 2.5 mM. Each reaction mix was preincubated for 10 min at 25 °C before the analysis. The catalytic activity was measured by monitoring the absorbance at 340 nm (εNADH = 6220 M^−^1 cm^−1) for 30 min at 25 °C and the inhibitory parameters were calculated by processing the raw data on SigmaPlot[53].

[3] = Absorbance, emission and excitation wavelengths evaluation; type: physicochemical; conditions: 10 µM in SEC buffer
Procedure: Fluorescent compounds were analyzed on a Tecan Spark to evaluate the correct parameters to further set the biochemical characterizations. The absorbance was evaluated in a range from 300 to 700 nm, with a wavelength step size of 5 nm. Based on the absorbance values, we settled a 3D fluorescence emission scan to evaluate the excitation and emission peaks. The analysis was conducted using the same buffer mix, as already described. The excitation range was set between 390 and 450 nm for both molecules, with a step size of 5 nm. The emission range was set between 485 and 700 nm for both molecules, with a step size of 5 nm. All these characterizations were performed on a Tecan Spark using Greiner Bio-One 96-UV-Transparent Microplates and the tests were carried out using a total volume of 100 μl for each well.

Structure (SMILES)	entry into and labelling of GL261 cells in vitro [1]	inhibition of ALDH1A3 [2]	Abs [3]	Em [3]	Ex [3]	mechanism of action (inhibition) [2]	Ki ([2]; acetaldehyde substrate, full competitive model)
CCOC(=O)Cn1cc(COc2ccc(/C=C/C(=O)/C=C(O)/C=C/c3ccc(O)c(OC)c3)cc2OC)nn1 [Probe 11]	able to enter and label the murine glioblastoma cells	no inhibitory effect	410 nm	545 nm	420 nm	–	–
COc1cc(/C=C/C(O)=C/C(=O)/C=C/c2ccc(OCc3cn(CCOc4ccc(C=O)cc4)nn3)c(OC)c2)ccc1O [Probe 10]	able to enter and label the murine glioblastoma cells	strongly inhibited	410 nm	545 nm	420 nm	competitive	880 nM
